Results on three compounds are retold here after patent publication US8680137B2, “Agents and methods for treating ischemic and other diseases” (Nono Inc., priority 2009, dated 2014).

Data set [1] concerns NIH3T3 fibroblasts. The data set can be described thus: Toxicity on NIH3T3 fibroblast cells, PI uptake after 72 hours. It counts as cell-based. To be noted: concentrations that reduce proliferation of cancerous cells. The procedure:
To differentiate between an anti-proliferative effect of the TRPM7 inhibitors and cellular toxicity, the compounds were added to various ‘non-cancerous’ cell lines at the same concentrations and the percentage of PI uptake was measured after 72 hours.

Data set [2] deals with retinal ganglion cells (RGCs). The data set can be described thus: OGD in cultured primary retinal ganglion cells, PI fluorescence. It counts as cell-based, rat. To be noted: 5 μM, 24 hours after 3 hour OGD. The text has this: Acute and chronic retinal ischemia are major causes of blindness. Retinal damage from glaucoma, also termed “slow excitotoxicity” afflicts millions of people each year and is the second leading cause of blindness worldwide (after cataracts). Diabetic retinopathy is also very common, afflicting about 40% of diabetics and, while less commonly producing complete blindness, is a leading cause of visual impairment. The retina is an extension of the CNS, and was the first organ in which excitotoxicity was described. This invention discloses TPRM7 antagonists that can inhibit anoxic retinal damage. To examine this, we cultured primary retinal ganglion cells (RGCs) and organotypic whole retinas from neonatal rat pups by standard methods and exposed them to OGD (1 or 3 hours). […] This underscores our earlier discussion that inhibiting TRPM7 is a ubiquitous mechanism for the reduction of ischemic damage.

In data set [3] the test system is MDA-MB231 breast cancer cells. Briefly: Cancer cell proliferation, MDA-MB231. The data set is classed as cell-based. The settings on record: MDA-MB231, FIG. 80. The procedure:
(§1) To determine the breadth of efficacy in cancers, we examined the efficacy of a range of TRPM7 inhibitors for their ability to inhibit cell proliferation in cancer cell lines. Representative figures are included as examples.
(§2) Cells (Table 1) were grown to 70% confluency, trypsinized, counted, and seeded in 96-well flat-bottom plates at a final concentration of 2.5×10^3-5.0×10^3 cells/well in growth media containing 5% FBS (Day 0). Other well sizes and cell densities were used successfully as well. Cells were allowed to incubate in growth media for 24 hours to allow for maximum adhesion. Treatment with the test agent began on Day 1 and continued for 72 hours either with or without retreatment. At the 72 hour time point, viable cell numbers are quantified by the CellTiter-Glo® cell viability assay as described above, or using standard MTT, SRB or BrDU assays. Experiments were repeated at least twice with the same concentrations to determine growth inhibitory activity.
(§3) Data Collection—For the cell proliferation studies, data from each experiment was collected and expressed as % Cell Growth using the following calculation: % Cell Growth=(ftest/fvehicle)×100 Where ftest is the luminescent signal of the tested sample, and fvehicle is the luminescence of the vehicle in which the drug is dissolved (or appropriate measure for the other viability/proliferation measures). […]

The subject of data set [4] is B16F1 melanoma cells. The data set can be described thus: Cancer cell proliferation, B16F1. It counts as cell-based, mouse. To be noted: B16F1, FIG. 81. The procedure: as §1, §2, §3
In data set [5] the test system is U2OS osteosarcoma. Briefly: Cancer cell proliferation, U2OS. It counts as cell-based. To be noted: >20% inhibition at 48-96 hours, MTT, SRB, luminescence or BrDU. The procedure:
as §1, §2, §3

Data set [6] relates to DMS53 Lung cancer. The data set can be described thus: Cancer cell proliferation, DMS53. To be noted: >20% inhibition at 48-96 hours, MTT, SRB, luminescence or BrDU. It counts as cell-based. The procedure:
as §1, §2, §3

Data set [7] concerns B16F10 melanoma cells. Briefly: Cancer cell proliferation, B16F10. It counts as cell-based, mouse. To be noted: for proliferation: B16F10, FIG. 81; for Demonstrated Reduction of Proliferation at or below 10 μM Inhibitor concentration: B16F10, >20% inhibition at 48-96 hours, MTT, SRB, luminescence or BrDU; for IC50: Mus musculus. The procedure:
as §1, §2
(§4) Data Collection—For the cell proliferation studies, data from each experiment was collected and expressed as % Cell Growth using the following calculation: % Cell Growth=(ftest/fvehicle)×100 Where ftest is the luminescent signal of the tested sample, and fvehicle is the luminescence of the vehicle in which the drug is dissolved (or appropriate measure for the other viability/proliferation measures). Dose response graphs and IC50 values were generated using standard software using the following variable slope equation: […]

In data set [8] the test system is MCF-7 breast cancer cells. The data set can be described thus: Cancer cell proliferation, MCF-7. The settings on record: for proliferation: MCF-7, FIG. 80; for Demonstrated Reduction of Proliferation at or below 10 μM Inhibitor concentration: MCF-7, >20% inhibition at 48-96 hours, MTT, SRB, luminescence or BrDU. The data set is classed as cell-based. The procedure: as §1, §2, §4

Data set [9] has as its target T1, TRPM6 (Homo sapiens, UniProt Q9BX84).
T1 construct: expressed in transfected cells; host or cells: HEK293
The data set can be described thus: Agonist-induced Ca2+ changes in HEK293 cells transfected with TRPM6. The data set is classed as cell-based. The procedure: (§5) To examine selectivity of a subset of these TRPM7 inhibitors, experiments were performed to determine whether TRPM7 antagonists cross-react with other ionic channels and receptors. […] From a therapeutic perspective, knowledge of cross-reactivity of candidate drugs could shed light on other ischemic mechanisms and raise awareness of potential side effects. M21 has no effect on voltage-sensitive Na+, and Ca2+ currents in cultured cortical neurons […] TRPM7-expressing HEK293 cells, but inhibits K+ currents by about 20% at membrane potentials of −10 mV. M21 had no effect on agonist-induced Ca2+ changes in HEK293 cells transfected with constructs for TRPM2, TRPM4, TRPM6, TRPV1, TRPC2 and TRPA1. M21 also has no effect on NMDA and AMPA receptor currents in cultured neurons. […] Similar experiments were performed with other TRPM7 inhibitors including M5 and M11.

Data set [10] has as its system mixed retinal cell cultures. Briefly: OGD in dissociated mixed rat retinal cultures. It counts as cell-based. The procedure:
(§6) The ability of TRPM7 inhibitors to protect other types of cell cultures following exposure to anoxia, including non-neuronal cell cultures, has also been tested. In general, cultures of growing cells are exposed to a 1-6 hour period of anoxia, followed by addition of a TRPM7 at a range of concentrations upon removal from anoxic conditions. […] This implies that TRPM7 inhibitors may be useful both as a treatment for anoxic damage to patients presenting symptoms of a disorder associated with anoxic damage, or as a preventative measure. Such preventative measures can be chronic, such as treatment to protect against damage from heart attacks or strokes, or acute, to be given prior to or during surgical procedures, which may include but not be limited to procedures that involve endovascular invasion and have the possibility of dislodging material that may block blood flow through arteries. […]

In data set [11] the test system is AML12 hepatocytes. Briefly: Anoxia (OGD) in AML12 hepatocyte cultures. It counts as cell-based, mouse. The settings on record: 2 hour, 4 hour or 6 hour anoxia. The procedure:
as §6

Data set [12] deals with voltage-sensitive Ca2+ currents. Briefly: Voltage-sensitive Ca2+ currents in cultured cortical neurons. It counts as cell-based. To be noted: at concentrations sufficient to inhibit TRPM7. The procedure: as §5
Data set [13] relates to AMPA receptor. The data set can be described thus: AMPA receptor currents in cultured neurons. It counts as cell-based. The procedure: as §5
Data set [14] has as its system K+ currents. Briefly: K+ currents in cultured cortical neurons. The data set is classed as cell-based. The procedure:
as §5

Data set [15] has as its system voltage-sensitive Na+ currents. Briefly: Voltage-sensitive Na+ currents in cultured cortical neurons. The data set is classed as cell-based. The settings on record: at concentrations sufficient to inhibit TRPM7. The procedure: as §5

Broadly, the IC50 is the midpoint of a concentration-inhibition curve.

“Also recorded” adds a separate entry of the source. Where two headings read alike, the source gives them in different places.

T1 sequence (Q9BX84 whole entry, species assumed): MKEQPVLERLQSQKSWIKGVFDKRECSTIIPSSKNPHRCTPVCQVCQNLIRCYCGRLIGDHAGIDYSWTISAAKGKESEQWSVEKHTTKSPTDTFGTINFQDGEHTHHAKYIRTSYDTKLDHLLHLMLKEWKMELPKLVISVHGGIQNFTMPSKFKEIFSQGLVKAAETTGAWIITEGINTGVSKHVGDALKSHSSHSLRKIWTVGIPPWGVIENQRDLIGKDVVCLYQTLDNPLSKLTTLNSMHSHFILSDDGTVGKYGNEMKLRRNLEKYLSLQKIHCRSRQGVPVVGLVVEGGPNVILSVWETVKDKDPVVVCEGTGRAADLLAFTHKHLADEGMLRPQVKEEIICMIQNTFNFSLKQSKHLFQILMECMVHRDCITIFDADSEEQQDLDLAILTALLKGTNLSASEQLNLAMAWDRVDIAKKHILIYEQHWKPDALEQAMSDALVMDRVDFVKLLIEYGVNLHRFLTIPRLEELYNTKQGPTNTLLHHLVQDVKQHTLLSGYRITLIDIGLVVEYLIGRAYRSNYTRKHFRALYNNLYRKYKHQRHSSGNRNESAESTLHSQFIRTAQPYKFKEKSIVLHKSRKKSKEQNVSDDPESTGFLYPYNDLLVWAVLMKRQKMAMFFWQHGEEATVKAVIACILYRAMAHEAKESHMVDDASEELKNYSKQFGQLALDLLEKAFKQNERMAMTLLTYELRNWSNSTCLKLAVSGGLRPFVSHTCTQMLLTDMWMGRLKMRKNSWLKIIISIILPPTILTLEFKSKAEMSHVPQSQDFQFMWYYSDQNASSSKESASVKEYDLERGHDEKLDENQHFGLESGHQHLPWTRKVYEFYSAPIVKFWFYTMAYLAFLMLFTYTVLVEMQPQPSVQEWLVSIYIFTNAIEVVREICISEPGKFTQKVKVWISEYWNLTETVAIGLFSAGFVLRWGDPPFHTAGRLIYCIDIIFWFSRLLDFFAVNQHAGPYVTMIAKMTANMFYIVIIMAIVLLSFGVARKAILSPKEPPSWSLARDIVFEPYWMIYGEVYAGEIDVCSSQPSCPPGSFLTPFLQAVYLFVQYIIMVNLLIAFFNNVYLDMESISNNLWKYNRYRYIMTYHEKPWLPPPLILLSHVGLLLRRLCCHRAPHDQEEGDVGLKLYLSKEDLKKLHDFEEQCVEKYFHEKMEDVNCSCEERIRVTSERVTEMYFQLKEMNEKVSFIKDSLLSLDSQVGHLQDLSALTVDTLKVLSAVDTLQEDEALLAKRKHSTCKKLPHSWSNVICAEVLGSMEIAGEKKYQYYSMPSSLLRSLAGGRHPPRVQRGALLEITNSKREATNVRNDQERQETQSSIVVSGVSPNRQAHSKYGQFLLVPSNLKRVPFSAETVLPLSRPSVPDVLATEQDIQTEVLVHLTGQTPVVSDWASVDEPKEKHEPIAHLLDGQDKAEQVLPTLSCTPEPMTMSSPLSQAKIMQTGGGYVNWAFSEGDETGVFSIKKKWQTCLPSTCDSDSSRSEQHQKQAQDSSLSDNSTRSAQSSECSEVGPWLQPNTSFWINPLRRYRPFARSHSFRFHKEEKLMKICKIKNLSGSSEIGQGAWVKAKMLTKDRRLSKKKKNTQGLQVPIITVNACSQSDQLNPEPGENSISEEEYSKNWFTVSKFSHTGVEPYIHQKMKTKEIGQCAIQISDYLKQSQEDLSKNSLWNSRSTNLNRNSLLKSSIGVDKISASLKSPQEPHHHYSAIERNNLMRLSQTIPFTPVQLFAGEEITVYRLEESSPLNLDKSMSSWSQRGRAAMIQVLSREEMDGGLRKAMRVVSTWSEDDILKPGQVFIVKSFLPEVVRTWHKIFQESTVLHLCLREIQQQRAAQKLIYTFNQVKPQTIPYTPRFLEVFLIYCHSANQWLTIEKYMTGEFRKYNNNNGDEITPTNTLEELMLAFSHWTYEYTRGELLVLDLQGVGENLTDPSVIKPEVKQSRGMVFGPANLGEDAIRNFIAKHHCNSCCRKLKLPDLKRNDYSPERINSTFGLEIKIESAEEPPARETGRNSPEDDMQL

For `COc1cc2c(cc1OC)C(c1sc3ccccc3c1Cl)=NCC2` [Compound M6], the “toxicity (PI uptake)” value in [1] is given as “not toxic; also recorded: do not show toxicity”. Besides, the “cytoprotection after OGD compared with U0126 or NA-1” value in data set [2] is “more protective”. The proliferation entry in data set [3] is reported as “reduce proliferation”; in data set [4] it was “reduce the proliferation”; in [7], “reduce the proliferation”; in [8] it was “reduce proliferation”. The “Demonstrated Reduction of Proliferation at or below 10 μM Inhibitor concentration” value was “U2OS osteosarcoma” in data set [5], “DMS53 Lung cancer” in [6], “B16F10 melanoma” in data set [7] and “MCF-7” in [8]. The IC50 worked out at 16.5 µM in data set [7] (B16-F10, 72 h, B16-F10, Exp 1, 72 hours, read-out: IC50); 14.3 µM in data set [7] (B16-F10, 72 h, B16-F10, Exp 2, 72 hours, read-out: IC50); 15.6 µM in [7] (B16-F10, B16-F10, mean of Exp 1 and Exp 2, read-out: Mean IC50).

`Cc1c(Cc2ccc(Cl)c(Cl)c2)c(=O)oc2cc(O)ccc12` [Compound M21]: the “cytoprotection after OGD compared with U0126 or NA-1” value in [2] is on record as “more protective”. For the same compound, in data set [9], the “effect on agonist-induced Ca2+ changes” value is listed as “no effect”. For the same compound, in data set [10], the “survival following exposure to OGD” value was “promote survival”. The survival after anoxia result in data set [11] is “can promote survival”. Besides, the “effect on voltage-sensitive Ca2+ currents” value in [12] is on record as “no effect”. Further, in [13], the “effect on AMPA receptor currents” value is listed as “no effect”. For the same compound, the “inhibition of K+ currents” value in [14] (membrane potentials of −10 mV) was “about 20%”. Moreover, the “effect on voltage-sensitive Na+ currents” value in data set [15] is “no effect”.

For the compound `O=C(Nc1ccc(F)cc1)C(Sc1ccc(Cl)cc1)c1ccccc1` (stereo not shown) [Compound M11], the “toxicity (PI uptake)” value in data set [1] is on record as “do not show toxicity”. The proliferation result in data set [3] is on record as “reduce proliferation”; in data set [4], “reduce the proliferation”; in data set [7] it was “reduce the proliferation”; in data set [8], “reduce proliferation”. For the same compound, the “Demonstrated Reduction of Proliferation at or below 10 μM Inhibitor concentration” value in [5] was “U2OS osteosarcoma”; in data set [6], “DMS53 Lung cancer”; in data set [7], “B16F10 melanoma”; in data set [8], “MCF-7”. Moreover, the “survival following exposure to OGD” value in [10] is recorded as “promote survival”. In addition, the “effect on voltage-sensitive Ca2+ currents” value in data set [12] was “did not affect”. Further, the “effect on potassium currents” value in data set [14] is given as “slight inhibition”. In data set [15], the “effect on voltage-sensitive Na+ currents” value is “did not affect”.
